The nature of test [1]: Ability to inhibit substance P endopeptidase at concentration of 1.5 uM.
The nature of test [2]: Ability to inhibit substance P endopeptidase at concentration of 10 uM.

Peptide text beside a SMILES is read from it. * marks the point of attachment. X1 = CSCC[C@H](NC(=O)[C@H](CC(C)C)NC(=O)CNC(=O)C(/C=C/[C@H](Cc1ccccc1)N*)(Cc1ccccc1)Cc1ccccc1)C(N)=O

`N[C@H](/C=C/C(CO)(Cc1ccccc1)Cc1ccccc1)Cc1ccccc1` returned an inhibition in test [1] of 50%.

In test [2], `CSCC[C@H](NC(=O)[C@H](CC(C)C)NC(=O)CNC(=O)C(/C=C/[C@H](Cc1ccccc1)NC(=O)[C@H](CCC(N)=O)NC(=O)[C@H](CCC(N)=O)NC(=O)[C@@H]1CCCN1C(=O)[C@H](CCCCN)NC(=O)[C@@H]1CCCN1C(=O)[C@@H](N)CCCN=C(N)N)(Cc1ccccc1)Cc1ccccc1)C(N)=O` (H-RPKPQQ-X1) returned an inhibition of 50%.

(Values after ChEMBL document CHEMBL1152037, “Novel peptidomimetics: inhibitors of substance P endopeptidase” (Bioorg Med Chem Lett, 1992).)
